Results on one compound are retold here after article PMC12612088 (Scientific Reports, 2025).

The assay deals with Pyruvate Dehydrogenase Kinase 3 (PDK3) (Homo sapiens, UniProt Q15120). In words: BIOMOL Green ATPase assay with purified PDK3. It counts as biochemical.
Pyruvate Dehydrogenase Kinase 3 (PDK3), sequence (Q15120 whole entry): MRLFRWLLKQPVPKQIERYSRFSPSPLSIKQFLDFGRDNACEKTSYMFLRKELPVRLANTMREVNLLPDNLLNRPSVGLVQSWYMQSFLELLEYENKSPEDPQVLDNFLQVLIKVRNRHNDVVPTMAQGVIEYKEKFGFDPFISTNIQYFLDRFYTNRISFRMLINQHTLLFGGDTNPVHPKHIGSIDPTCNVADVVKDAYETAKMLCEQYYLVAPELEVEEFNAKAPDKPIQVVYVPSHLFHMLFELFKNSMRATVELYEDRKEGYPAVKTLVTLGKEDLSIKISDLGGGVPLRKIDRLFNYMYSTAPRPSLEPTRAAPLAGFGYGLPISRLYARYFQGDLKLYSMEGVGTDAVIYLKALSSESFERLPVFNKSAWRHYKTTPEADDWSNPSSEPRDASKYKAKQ

Regarding `Cc1ccc(O)cc1` [p-C, 4-methylphenol], 3.52 µM corresponded to half-maximal inhibition (IC50).

As a reminder, the IC50 is the concentration that inhibits the measured activity by half. The low end stands for greater potency in that assay, the high end for weaker potency in that assay.
